From patent US20050148495A1, “Methods and materials including for treating acne” (priority 2003, published 2005)
Non-standard residues stand in square brackets, D forms with d. Residues, ends and D or L forms follow the SMILES beside them. d1Nal = N[C@H](Cc1cccc2ccccc12)C(=O)O

Assays:
[1] = 72 hours following dosing
[2] = system: polychromatic erythrocyte (PCE) cells in mouse bone marrow; assay: Mouse bone marrow micronucleus assay; format: in vivo, Crl:CD-1(ICR) BR mouse
Protocol: XMP.629 was next evaluated for in vivo clastogenic activity and/or disruption of mitotic apparatus by detecting micronuclei in polychromatic erythrocyte (PCE) cells in Crl:CD-1®(ICR) BR mouse bone marrow. The assay design was based on OECD Guideline 474, updated and adopted Jul. 21, 1997. In this micronucleus assay, XMP.629 was formulated in 10 mM sodium acetate buffer (pH 6.0) and dosed by intraperitoneal injection to six males per dose level at each scheduled harvest timepoint. The dose levels were 2, 4, or 8 mg/kg. Five animals dosed with XMP.629 at 2 or 4 mg/kg and five animals dosed with a positive control were euthanized approximately 24 hours after dosing for extraction of the bone marrow. Five animals per harvest timepoint dosed with XMP.629 at 8 mg/kg and five animals per harvest timepoint dosed with the vehicle control article were euthanized approximately 24 or 48 hours after dosing for extraction of the bone marrow. This micronucleus test can serve as a rapid screen for compounds which interfere with normal mitotic cell division (Schmid, 1975, Mutat. Res. 31: 9-15; Heddle et al., 1983, Mutat. Res. 123: 61-118; Heddle et al., 1991, Env. And Mol. Mutagen. 18: 277-291). At least 2000 PCEs per animal were analyzed for the frequency of micronuclei. Cytotoxicity was assessed by scoring the number of PCEs and normochromatic erythrocytes (NCEs) in at least the first 500 erythrocytes for each avenal. […] Therefore, XMP.629 was determined to be negative in the mouse bone marrow micronucleus assay.

[3] = system: CD [Crl:CD (SD) IGS BR] rats; assay: Rat acute oral toxicity test; format: in vivo
Protocol: XMP.629 was evaluated for acute toxicity following a single dose by oral gavage. The study consisted of three treatment groups of five male and five female CD [CrI:CD (SD) IGS BR] rats which received XMP.629 as a gel at concentrations of 0.1, 0.5, and 1.0% of XMP.629 respectively at a volume of 10 mL/kg. An additional group of five rats per sex served as the control and received control gel at the same volume. All rats were observed twice daily for morbidity, mortality, injury, and availability of food and water. Body weights were measured pretest and at different intervals during the study for all rats; observations for clinical signs were conducted pretest and at approximately 2 and 4 hours following the dose; and daily clinical observations were conducted daily until Day 14. At study termination, gross necropsies were conducted and macroscopic observations were recorded for all animals.

[4] = in vivo; settings: both, minipig, plasma, iv; for half-life: 0.05 or 2 mg/kg short IV infusion
[5] = system: E. coli 0111 :B4 lipopolysaccharide challenge in CD-1 mice; assay: Murine model of endotoxemia (survival); format: in vivo; settings: 0.65 mg/kg intravenously; 25 mg/kg LPS; seven days
Protocol: This example addresses studies relating to additional activities of XMP.629, including its known endotoxin-related activities. […] For these studies, groups of 15 male CD-1 mice were challenged with 25 mg/kg E. coli 0111 :B4 lipopolysaccharide via tail vein injection. Immediately following endotoxin challenge, mice were treated intravenously with XMP.629 at 0.07, 0.2, 0.65 mg/kg or saline. Animals were observed twice daily and mortality was recorded for seven days.

For `CC(C)C[C@@H](NC(=O)[C@H](N)CCCCN)C(=O)N[C@H](Cc1ccccc1)C(=O)N[C@H](CCCNC(=N)N)C(=O)N[C@H](Cc1cccc2ccccc12)C(=O)N[C@H](CCC(N)=O)C(=O)N[C@H](C)C(=O)N[C@H](CCCCN)C(=O)N[C@H](Cc1cccc2ccccc12)C(N)=O` [XMP.629, NH2-lys-leu-phe-arg-(3-(1-naphthyl)-ala)-gln-ala-lys-(3-(1-naphthyl)-ala)-CONH2] (H-[dK][dL][dF][dR][d1Nal][dQ][dA][dK][d1Nal]-NH2), the “radioactivity remained in the body (carcass)” value [1] was 79.7%, the “mouse bone marrow micronucleus assay result” value ([2]; 2, 4, or 8 mg/kg intraperitoneal) was “negative” and the “cytotoxicity to the bone marrow (PCE:NCE ratios)” value ([2]; any dose level tested) was “not cytotoxic to the bone marrow”. For the same molecule, the “signs of clinical toxicity” value ([2]; up to 8 mg/kg) was “did not induce any signs of clinical toxicity”, the clinical observation ([3]; 1.0% XMP.629, four hours after administration, four males and one female, resolved by Day 2) was “Decreased activity” and the clinical signs ([3]; concentrations of 0.1 or 0.5% XMP.629) was “No clinical signs of systemic toxicity”. For the same molecule, the minimum lethal dose ([3]; single oral gavage of gel, 10 mL/kg (10 mg/mL)) was over 1 % XMP.629, the Vd ([4]; Sinclair mini-pig) was 0.067 to 0.102 L/kg and the clearance ([4]; Sinclair mini-pig) was 1.75 to 2.6 mL/min/kg. The Vd ([4]; Sinclair mini-pig, 0.05 mg/kg) was 1.79 L/kg, the Vd ([4]; Sinclair mini-pig, 0.2 mg/kg) was 0.956 L/kg and the half-life ([4]; Sinclair mini-pig, beta half-life) was 1 to 1.3 h. It also gave a half-life ([4]; Sinclair mini-pig, initial half-life) of 0.03 to 0.9 h, a half-life ([4]; Sinclair mini-pig, terminal half-life) of about 15 h and an MRT ([4]; Sinclair, 0.05 mg/kg) of 11.3 h. The clearance ([4]; Sinclair, 0.05 mg/kg) was 2.59 mL/min/kg, the MRT ([4]; Sinclair, 0.2 mg/kg) was 7.41 h and the clearance ([4]; Sinclair, 0.2 mg/kg) was 1.74 mL/min/kg. For the same molecule, the “survival in endotoxin-challenged mice” value [5] was “complete protection”.
